Usually IC50 stands for the concentration needed to halve the response being measured. A low value points to greater potency.

Each structure is given as a SMILES string.

This assay deals with human Cat S (Homo sapiens (Human), UniProt P25774). Put plainly: Cathepsin enzyme inhibition assay (fluorogenic peptide substrate Z-Val-Val-Arg-AMC). The format is biochemical. As to conditions: enzyme 1 nM, substrate 20 μM, pH 6.5. As for the experimental part: Cathepsin Enzyme Inhibition Assay
Chain of human Cat S (P25774 115-331): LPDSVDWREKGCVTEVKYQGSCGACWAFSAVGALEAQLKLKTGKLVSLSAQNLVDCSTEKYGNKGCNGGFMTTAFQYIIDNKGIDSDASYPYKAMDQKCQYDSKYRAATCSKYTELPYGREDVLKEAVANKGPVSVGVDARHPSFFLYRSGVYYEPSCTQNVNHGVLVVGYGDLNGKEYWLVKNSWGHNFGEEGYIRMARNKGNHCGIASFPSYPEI
Enzyme activity is measured by observing the increase in fluorescence intensity caused by cleavage of a peptide substrate containing a fluorophore whose emission is quenched in the intact peptide.
Assay buffer: 100 mM potassium phosphate pH 6.5, EDTA-Na 5 mM, Triton X-100 0.001%, DTT 5 mM.
Enzymes (all at 1 nM): human and mouse Cathepsin S, Cat K, Cat B, Cat L.
Substrate (20 μM): Z-Val-Val-Arg-AMC, except for Cat K which uses Z-Leu-Arg-AMC (both from Bachem).
AMC=7-Amino-4-Methyl-Coumarin.
Excitation 360 nm, Emission 465 nm.
Enzyme is added to the substance dilutions in 96-well microtitre plates and the reaction is started with substrate. […] IC50 are calculated by standard methods.
Inhibition of human Cat S, mouse Cat S, human Cat K, human Cat B, human Cat L and mouse Cat L have been measured separately.
As to `Cc1cc(-c2ccccc2OC(F)(F)F)ccc1S(=O)(=O)[C@@H]1C[C@@H](C(=O)NC2(C#N)CC2)N(C(=O)C2(C(F)(F)F)CC2)C1` [Example 22, (2S,4R)—N-(1-cyanocyclopropyl)-4-(3-methyl-2′-(trifluoromethoxy)biphenyl-4-ylsulfonyl)-1-(1-(trifluoromethyl)cyclopropanecarbonyl)pyrrolidine-2-carboxamide], the IC50 was determined as 1.14 nM. That is a single-digit nanomolar value.
Molecule `Cc1cc(C(F)(F)F)nn1-c1ccc(S(=O)(=O)[C@@H]2C[C@@H](C(=O)NC3(C#N)CC3)N(C(=O)C3(C(F)(F)F)CC3)C2)c(C(F)(F)F)c1` [Example 23, (2S,4R)-4-[4-(5-Methyl-3-trifluoromethyl-pyrazol-1-yl)-2-trifluoromethyl-benzenesulfonyl]-1-(1-trifluoromethyl-cyclopropanecarbonyl)-pyrrolidine-2-carboxylic acid (1-cyano-cyclopropyl)-amide] registered an IC50 of 1.12 nM. This IC50 and that of the molecule before are within 1.5-fold of each other.
The molecule `Cc1ncn(-c2ccc(S(=O)(=O)[C@@H]3C[C@@H](C(=O)NC4(C#N)CC4)N(C(=O)C4(C(F)(F)F)CC4)C3)c(C(F)(F)F)c2)n1` [Example 24, (2S,4R)-4-[4-(3-Methyl-[1,2,4]triazol-1-yl)-2-trifluoromethyl-benzenesulfonyl]-1-(1-trifluoromethyl-cyclopropanecarbonyl)-pyrrolidine-2-carboxylic acid (1-cyano-cyclopropyl)-amide] returned an IC50 of 0.772 nM.
In turn, `Cc1nncn1-c1ccc(S(=O)(=O)[C@@H]2C[C@@H](C(=O)NC3(C#N)CC3)N(C(=O)C3(C(F)(F)F)CC3)C2)c(C(F)(F)F)c1` [Example 25, (2S,4R)-4-[4-(3-Methyl-[1,2,4]triazol-4-yl)-2-trifluoromethyl-benzenesulfonyl]-1-(1-trifluoromethyl-cyclopropanecarbonyl)-pyrrolidine-2-carboxylic acid (1-cyano-cyclopropyl)-amide] came in with an IC50 of 3.27 nM.
The value for `Cc1nc(C)n(-c2ccc(S(=O)(=O)[C@@H]3C[C@@H](C(=O)NC4(C#N)CC4)N(C(=O)C4(C(F)(F)F)CC4)C3)c(C(F)(F)F)c2)n1` [Example 27, (2S,4R)-4-[4-(3,5-Dimethyl-[1,2,4]triazol-1-yl)-2-trifluoromethyl-benzenesulfonyl]-1-(1-trifluoromethyl-cyclopropanecarbonyl)-pyrrolidine-2-carboxylic acid (1-cyano-cyclopropyl)-amide] was 0.558 nM; that for `Cn1nc(C(F)(F)F)cc1-c1ccc(S(=O)(=O)[C@@H]2C[C@@H](C(=O)NC3(C#N)CC3)N(C(=O)C3(C(F)(F)F)CC3)C2)cc1` [Example 28, (2S,4R)—N-(1-cyanocyclopropyl)-4-(4-(1-methyl-3-(trifluoromethyl)-1H-pyrazol-5-yl)phenylsulfonyl)-1-(1-(trifluoromethyl)cyclopropanecarbonyl)pyrrolidine-2-carboxamide] was 2.33 nM; that for `Cc1cc(-c2ccccc2C=O)ccc1S(=O)(=O)[C@@H]1C[C@@H](C(=O)NC2(C#N)CC2)N(C(=O)C2(C(F)(F)F)CC2)C1` [Example 29, (2S,4R)—N-(1-cyanocyclopropyl)-4-(2′-formyl-3-methylbiphenyl-4-ylsulfonyl)-1-(1-(trifluoromethyl)cyclopropanecarbonyl)pyrrolidine-2-carboxamide] was 0.811 nM.
On to `Cc1ncnn1-c1ccc(S(=O)(=O)[C@@H]2C[C@@H](C(=O)NC3(C#N)CC3)N(C(=O)C3(C(F)(F)F)CC3)C2)c(C(F)(F)F)c1` [Example 31, (2S,4R)—N-(1-cyanocyclopropyl)-4-(4-(5-methyl-1H-1,2,4-triazol-1-yl)-2-(trifluoromethyl)phenylsulfonyl)-1-(1-(trifluoromethyl)cyclopropanecarbonyl) pyrrolidine-2-carboxamide], for which the concentration for half-maximal inhibition (IC50) was 0.54 nM.
